From the supplement of paper PMC10627819

Tests used:
S. aureus Newman = assay: fitness (endpoint OD595 vs no drug) (fraction); higher = more growth
In short: (§1)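 Bacterial growth was followed in 384-well plates seeded at OD595 0.01, with 30 µl per well, or 55 µl for S. pneumoniae, in TSB, LB Lennox or CY at 37 °C. OD595 was read every 30 min for 14 h, and each reading had the first reading subtracted as background. Fitness is the background-corrected optical density at entry into stationary phase divided by the robust mean of the no-drug control wells. This ratio is capped at 1.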

S. pneumoniae D39V = assay: as above
In short: as §1

B. subtilis 168 = assay: as above
In short: as §1

S. aureus DSM 20231 [1] = assay: Bliss interaction score (quartile over a dose matrix) (fitness difference); higher = more antagonism (negative = synergy); conditions: main component drawn
In short: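 OD595 was read at entry into stationary phase and expressed relative to the robust mean of the no-drug wells on the same plate, capped at 1. The resulting ratio is the fitness value. The Bliss score, observed fitness minus product-based expected fitness with single-drug fitness inferred from combinations, is summarised by quartiles over technical, biological and donor/recipient replicates.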

S. aureus DSM 20231 [2] = assay: fitness (endpoint OD595 vs no drug) (fraction); higher = more growth
In short: as §1
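For Bliss interaction score (quartile over a dose matrix) in this document: first quartile when negative (synergy) and third quartile when positive (antagonism).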

O=C(O)[C@H]1/C(=C/CO)O[C@@H]2CC(=O)N21 [Clavulanic acid] + O=C(O[C@@H]1Cc2c(O)cc(O)cc2O[C@@H]1c1cc(O)c(O)c(O)c1)c1cc(O)c(O)c(O)c1 [EGCG]
fitness, S. aureus Newman, one replicate
Conditions | first compound 0.03125 µg/mL | first compound 0.0625 µg/mL | first compound 0.125 µg/mL
partner 12.5 µg/mL | 0.846 | 0.892 | 0.824
partner 25 µg/mL | 0.821 | 0.874 | 0.812
partner 50 µg/mL | 0.75 | 0.733 | 0.73

fitness
Conditions | partner 6.25 µg/mL | partner 12.5 µg/mL | partner 25 µg/mL | partner 50 µg/mL
B. subtilis 168, first compound 1.5 µg/mL | 0.884 | – | – | –
B. subtilis 168, first compound 3 µg/mL | 0.835 | – | – | –
B. subtilis 168, first compound 6 µg/mL | 0.715 | – | 0.272 | –
S. pneumoniae D39V, first compound 0.5 µg/mL | – | 0.958 | 0.96 | 0.939
S. pneumoniae D39V, first compound 1 µg/mL | – | 0.889 | 0.931 | 0.93
S. pneumoniae D39V, first compound 2 µg/mL | – | 0.817 | 0.829 | 0.816

CNC(C)C1CCC(N)C(OC2C(N)CC(N)C(OC3OCC(C)(O)C(NC)C3O)C2O)O1 (centres undefined) [Gentamicin] + CC1=C(C(=O)O)N2C(=O)[C@@H](NC(=O)[C@H](N)c3ccccc3)[C@H]2SC1 [Cephalexin]
fitness, one replicate, main component drawn
Conditions | partner 0.125 µg/mL | partner 0.25 µg/mL | partner 0.5 µg/mL | partner 1 µg/mL
B. subtilis 168, first compound 0.0625 µg/mL | – | – | – | 0.986
B. subtilis 168, first compound 0.125 µg/mL | – | – | – | 0.941
B. subtilis 168, first compound 0.25 µg/mL | – | – | – | 0.418
S. aureus Newman, first compound 0.375 µg/mL | – | ≥ 1 | ≥ 1 | ≥ 1
S. aureus Newman, first compound 0.75 µg/mL | – | ≥ 1 | ≥ 1 | ≥ 1
S. aureus Newman, first compound 1.5 µg/mL | – | 0.986 | 0.877 | 0.963
S. pneumoniae D39V, first compound 2 µg/mL | 0.962 | 0.96 | 0.947 | –
S. pneumoniae D39V, first compound 4 µg/mL | 0.993 | 0.955 | ≥ 1 | –
S. pneumoniae D39V, first compound 8 µg/mL | 0.93 | 0.965 | 0.956 | –

main component drawn
Conditions | fitness
B. subtilis 168, first compound 0.0625 µg/mL, partner 0.125 µg/mL | 0.852
B. subtilis 168, first compound 0.0625 µg/mL, partner 0.25 µg/mL | 0.938
B. subtilis 168, first compound 0.0625 µg/mL, partner 0.5 µg/mL | 0.882
B. subtilis 168, first compound 0.125 µg/mL, partner 0.125 µg/mL | 0.0869
B. subtilis 168, first compound 0.25 µg/mL, partner 0.125 µg/mL | 0.0552
B. subtilis 168, first compound 0.25 µg/mL, partner 0.25 µg/mL | 0.0555
B. subtilis 168, first compound 0.25 µg/mL, partner 0.5 µg/mL | 0.0535
S. aureus Newman, first compound 0.5 µg/mL, partner 0.25 µg/mL | 0.968
S. aureus Newman, first compound 0.5 µg/mL, partner 0.5 µg/mL | 0.964
S. aureus Newman, first compound 0.5 µg/mL, partner 1 µg/mL | 0.922
S. aureus Newman, first compound 1 µg/mL, partner 0.25 µg/mL | ≥ 1
S. aureus Newman, first compound 1 µg/mL, partner 0.5 µg/mL | 0.986
S. aureus Newman, first compound 1 µg/mL, partner 1 µg/mL | ≥ 1
S. aureus Newman, first compound 2 µg/mL, partner 0.25 µg/mL | 0.993
S. aureus Newman, first compound 2 µg/mL, partner 0.5 µg/mL | ≥ 1
S. aureus Newman, first compound 2 µg/mL, partner 1 µg/mL | ≥ 1
S. pneumoniae D39V, first compound 2 µg/mL, partner 2 µg/mL | 0.0158
S. pneumoniae D39V, first compound 2 µg/mL, partner 4 µg/mL | 0.0234
S. pneumoniae D39V, first compound 4 µg/mL, partner 1 µg/mL | 0.424
S. pneumoniae D39V, first compound 4 µg/mL, partner 2 µg/mL | 0.0331
S. pneumoniae D39V, first compound 4 µg/mL, partner 4 µg/mL | 0.026
S. pneumoniae D39V, first compound 8 µg/mL, partner 1 µg/mL | 0.401
S. pneumoniae D39V, first compound 8 µg/mL, partner 2 µg/mL | 0.0415
S. pneumoniae D39V, first compound 8 µg/mL, partner 4 µg/mL | 0.0404

CNC(C)C1CCC(N)C(OC2C(N)CC(N)C(OC3OCC(C)(O)C(NC)C3O)C2O)O1 (centres undefined) [Gentamicin] + CC(C)Cc1ccc(C(C)C(=O)O)cc1 [Ibuprofen]
Conditions | Bliss interaction score
S. aureus DSM 20231 [1] | -0.442

CNC(C)C1CCC(N)C(OC2C(N)CC(N)C(OC3OCC(C)(O)C(NC)C3O)C2O)O1 (centres undefined) [Gentamicin] + CCCSc1nc(N[C@@H]2C[C@H]2c2ccc(F)c(F)c2)c2nnn([C@@H]3C[C@H](OCCO)[C@@H](O)[C@H]3O)c2n1 [Ticagrelor]
Conditions | Bliss interaction score
S. aureus DSM 20231 [1] | -0.576

CNC(C)C1CCC(N)C(OC2C(N)CC(N)C(OC3OCC(C)(O)C(NC)C3O)C2O)O1 (centres undefined) [Gentamicin] + CCCc1nc2c(C)cc(-c3nc4ccccc4n3C)cc2n1Cc1ccc(-c2ccccc2C(=O)O)cc1 [Telmisartan]
Conditions | Bliss interaction score
S. aureus DSM 20231 [1] | 0.241

CNC(C)C1CCC(N)C(OC2C(N)CC(N)C(OC3OCC(C)(O)C(NC)C3O)C2O)O1 (centres undefined) [Gentamicin] + CC[C@H](c1ccc(O)cc1)[C@@H](CC)c1ccc(O)cc1 [Hexestrol]
Conditions | Bliss interaction score
S. aureus DSM 20231 [1] | -0.536

CNC(C)C1CCC(N)C(OC2C(N)CC(N)C(OC3OCC(C)(O)C(NC)C3O)C2O)O1 (centres undefined) [Gentamicin] + O=C(O)Cc1cc(I)c(Oc2ccc(O)c(I)c2)c(I)c1 [Tiratricol]
Conditions | Bliss interaction score
S. aureus DSM 20231 [1] | 0.264

Cc1cc(NS(=O)(=O)c2ccc(N)cc2)no1 [Sulfamethoxazol] + CN(N=O)C(=O)N[C@@H](C=O)[C@@H](O)[C@H](O)[C@H](O)CO [Streptozotocin]
fitness
Conditions | partner 0.15 µg/mL | partner 0.3 µg/mL | partner 0.6 µg/mL | partner 1.2 µg/mL | partner 2.4 µg/mL | partner 4.8 µg/mL
B. subtilis 168, first compound 1 µg/mL | 0.855 | 0.847 | 0.927 | – | – | –
B. subtilis 168, first compound 2 µg/mL | 0.85 | 0.889 | 0.889 | – | – | –
S. aureus DSM 20231 [2], first compound 1 µg/mL | 0.794 | 0.727 | 0.632 | – | – | –
S. aureus DSM 20231 [2], first compound 2 µg/mL | 0.861 | 0.735 | 0.689 | – | – | –
S. aureus DSM 20231 [2], first compound 4 µg/mL | 0.857 | 0.815 | 0.689 | – | – | –
S. aureus Newman, first compound 1 µg/mL | 0.891 | 0.754 | 0.605 | – | – | –
S. aureus Newman, first compound 2 µg/mL | 0.868 | 0.789 | 0.587 | – | – | –
S. aureus Newman, first compound 4 µg/mL | 0.88 | 0.798 | 0.62 | – | – | –
S. pneumoniae D39V, first compound 1 µg/mL | – | – | – | 0.939 | 0.94 | 0.935
S. pneumoniae D39V, first compound 2 µg/mL | – | – | – | 0.944 | 0.942 | 0.953
S. pneumoniae D39V, first compound 4 µg/mL | – | – | – | 0.911 | 0.899 | 0.917

fitness, one replicate
Conditions | partner 0.15 µg/mL | partner 0.3 µg/mL | partner 0.6 µg/mL
B. subtilis 168, first compound 0.5 µg/mL | 0.931 | 0.904 | 0.943
B. subtilis 168, first compound 4 µg/mL | ≥ 1 | ≥ 1 | 0.956
S. aureus Newman, first compound 8 µg/mL | 0.854 | 0.804 | 0.751
